Measurements as given in patent US20250144247A1, “FORMULATIONS TO ENHANCE THE DELIVERY OF GENE THERAPY VECTORS” (priority 2023, published 2025).

Legend:
[1] = tested on: human airway epithelial cells (HAE); assay: Transepithelial electrical resistance (TEER) of HAE after apical reagent; assay type: cell-based; conditions: apical 5 minutes; LPC 0.1%, EGTA 250 mM, doxorubicin 5 μM, NaCl 3.6%, Infasurf 35 mg/ml
Method: The University of Iowa In Vitro Models and Cell Culture Core cultured and maintained human airway epithelial cells (HAE) as previously described (33). Briefly, following enzymatic disassociation of trachea and bronchus epithelia, the cells were seeded onto collagen-coated, polycarbonate transwell inserts (0.4 μm pore size; surface area=0.33 cm^2; Corning Costar, Cambridge, MA). HAE were submerged in Ultroser G (USG) medium for 24 hours (37° C. and 5% CO2) at which point the apical media is removed to encourage polarization and differentiation at an air-liquid interface. Transepithelial electrical resistance was measured using an Ohmmeter […]
Disrupting the epithelial tight junctions allows Ad5-based viral vectors access to their basolaterally localized coxsackie and adenovirus receptor (CXADR) (12). Unless otherwise specified, these studies use the Ad5 serotype. […] First, reagents were applied to the apical surface of HAE for 5 minutes and then TEER was measured using an ohmmeter. […] In separate cultures, Ad-GFP (MOI=250) in 50 μl of DMEM combined 1:1 with the test reagents was applied to the apical surface for 2 hours. 5 days post-treatment, cells were imaged by fluorescence microscopy.

[2] = tested on: human airway epithelial cells (HAE); assay type: cell-based; conditions: for Ad gene transfer: Ad-GFP MOI=250 combined 1:1 with reagent, apical 2 hours, imaged 5 days, LPC 0.1%, EGTA 250 mM, doxorubicin 5 μM, NaCl 3.6%, Infasurf; for Ad-GFP gene transfer at 1-7% tonicities: Ad-GFP MOI=250, apical 2 h, 5 days
[3] = Osmolarity and pH of the solutions; assay type: physicochemical
[4] = tested on: human airway epithelia (HAE); assay: Endosomal acidification inhibitors on NaCl enhanced Ad5-GFP transduction; assay type: cell-based; conditions: pre-treated 2 h with CQ 200 μM or bafilomycin A1 1 μM; Ad5-GFP MOI=250 with NaCl 3.6%
Excerpt: GFP expression was quantified by flow cytometry 5 days later. […] GFP was quantified 5 days post-transduction.

Molecule | transepithelial electrical resistance (TEER) [1] | Ad gene transfer [2] | Ad-GFP gene transfer at 1-7% tonicities [2] | Osmolarity ([3]; 1% solution) [mOsmol/l] | Osmolarity ([3]; 2% solution) [mOsmol/l] | Osmolarity ([3]; 3% solution) [mOsmol/l] | Osmolarity ([3]; 4% solution) [mOsmol/l] | Osmolarity ([3]; 5% solution) [mOsmol/l] | Osmolarity ([3]; 6% solution) [mOsmol/l] | Osmolarity ([3]; 7% solution) [mOsmol/l] | other results
O=C(O)CN(CCOCCOCCN(CC(=O)O)CC(=O)O)CC(=O)O [EGTA] | reduced TEER | increased gene transfer | – | – | – | – | – | – | – | – | –
[Cl-].[K+] [KCl, potassium chloride] | – | – | Dose-dependent increases | 268 | 537 | 805 | 1073 | 1341 | 1610 | 1878 | Osmolarity ([3]; 3.6% solution): 970 mOsmol/l
O=C([O-])[C@H](O)[C@@H](O)[C@H](O)[C@H](O)CO.[Na+] [NaGluconate, sodium gluconate] | – | – | – | – | – | – | – | – | – | – | Osmolarity ([3]; 3.6% solution): 120 mOsmol/l
CO/C1=C\C(C)=C\[C@@H](C)[C@@H](O)[C@@H](C)C/C(C)=C/C=C/[C@H](OC)[C@@H]([C@@H](C)[C@@H](O)[C@H](C)[C@@]2(O)C[C@@H](O)[C@H](C)[C@@H](C(C)C)O2)OC1=O [bafilomycin A1] | – | – | – | – | – | – | – | – | – | – | NaCl enhanced Ad5-GFP transduction after inhibitor [4]: significantly decreased
CCN(CC)CCCC(C)Nc1ccnc2cc(Cl)ccc12 (stereo not shown) [chloroquine] | – | – | – | – | – | – | – | – | – | – | NaCl enhanced Ad5-GFP transduction after inhibitor [4]: significantly decreased
COc1cccc2c1C(=O)c1c(O)c3c(c(O)c1C2=O)C[C@@](O)(C(=O)CO)C[C@@H]3O[C@H]1C[C@H](N)[C@H](O)[C@H](C)O1 [doxorubicin] | decreased TEER | did not enhance Ad gene transfer | – | – | – | – | – | – | – | – | –
OC[C@@H](O)[C@@H](O)[C@H](O)[C@H](O)CO [mannitol] | – | – | did not enhance gene transfer | 55 | 110 | 170 | 220 | 270 | 330 | 380 | –
N-methyl-d-glucamine gluconate [NMDG gluconate] | – | – | Dose-dependent increases | 342 | 684 | 1027 | 1369 | 1711 | 2053 | 3693 | –
lysophosphatidylcholine [LPC] | reduced TEER | increased gene transfer | – | – | – | – | – | – | – | – | –
